{
  "source": "patent US4717767A",
  "about": "“7-amino-3-(pyrazinylmethyl) or (pyridazinylmethyl)-cephalosporins” (Toyama Chemical Co., Ltd., priority 1982, dated 1988)",
  "key": {"[1]": {"test": "Acute toxicity, intravenous, mice", "details": "mouse, in vivo, mice (ICR, male, 20-24 g)", "text": "LD50 values of the following test compounds were 3 g/kg or more when the compounds were intravenously administered to mice (ICR, male, body weight 20-24 g)."}, "[2]": {"test": "Urinary recovery after oral administration to mice", "type": "in vivo, mice (ICR, male)", "details": "urine, 1 mg/mouse in 0.5% CMC, 0-6 hours, 5 mice, mean ± S.E., free carboxylic acid by bioassay with Kl. pneumoniae ATCC 10031", "protocol": "A test compound was orally administered to mice (ICR, male, 4 weeks old) in an amount of 1 mg/mouse, and a urinary recovery was determined.\nIn the test compounds (No. 1 and No. 2), the ester group is easily removed in a living body, whereby the compounds are converted into the corresponding free carboxylic acids. Therefore, the urinary recovery was determined by quantitatively measuring the free carboxylic acids excreted into urine.\nAdministration method: A test compound suspended in 0.5% CMC (Carboxy Methyl Cellulose) was orally administered.\nQuantitative measurement method: The amount of free carboxylic acid was measured by bioassay (a paper-disc method) using the test organism mentioned in Table 2."}},
  "data": [
    {"smiles": "CO/N=C(\\C(=O)NC1C(=O)N2C(C(=O)O)=C(Cn3cc[nH]c(=O)c3=O)CSC12)c1csc(N)n1", "note": "(centres unmarked)", "values": [
      {"measurement": "LD50", "setting": "[1]", "value": "≥ 3000", "unit": "mg/kg"}
    ]},
    {"smiles": "CO/N=C(\\C(=O)NC1C(=O)N2C(C(=O)O)=C(Cn3[nH]c(=O)ccc3=O)CSC12)c1csc(N)n1", "note": "(centres unmarked)", "values": [
      {"measurement": "LD50", "setting": "[1]", "value": "≥ 3000", "unit": "mg/kg"}
    ]},
    {"smiles": "CO/N=C(\\C(=O)NC1C(=O)N2C(C(=O)O)=C(Cn3ccn(C)c(=O)c3=O)CSC12)c1csc(N)n1", "note": "(centres unmarked)", "values": [
      {"measurement": "LD50", "setting": "[1]", "value": "≥ 3000", "unit": "mg/kg"}
    ]},
    {"smiles": "CO/N=C(\\C(=O)NC1C(=O)N2C(C(=O)O)=C(Cn3nc(C)ccc3=O)CSC12)c1csc(N)n1", "note": "(centres unmarked)", "values": [
      {"measurement": "LD50", "setting": "[1]", "value": "≥ 3000", "unit": "mg/kg"}
    ]},
    {"smiles": "Cc1ccc(=O)n(CC2=C(C(=O)O)N3C(=O)C(NC(=O)/C(=N\\OCC(=O)O)c4csc(N)n4)C3SC2)n1", "note": "(centres unmarked) [Compound 3]", "values": [
      {"measurement": "dose excreted at 6 h", "setting": "[2]", "value": "10.4 ± 1.1", "unit": "%"}
    ]}
  ]
}
